Like-named read-outs stand apart in the source and are kept apart here.
Assays:
[1] = Observed tramadol and ODT blood concentrations; assay type: in vivo, human
[2] = system: mu (µ) opioid receptor; conditions: higher than that of tramadol; cited from earlier work
[3] = more potent than tramadol; cited from earlier work
[4] = cited from earlier work
[5] = before inclusion of CrCL covariate (base model)
[6] = final model (with CrCL covariate)

CN(C)C[C@H]1CCCC[C@]1(O)c1cccc(O)c1 [O-desmethyltramadol]
ODT concentration ([1]; patients received 100 mg of tramadol): around 100 µg/l
ODT/tramadol concentration ratio at steady state, range ([1]; trough samples, n = 17): 0.08–0.82
binding affinity to the mu (µ) opioid receptor relative to tramadol [2]: 300 fold
potency relative to tramadol [3]: 100 times
BSV in CLm (final model): 21.6%
CLm/F, clearance of O-desmethyltramadol (final model): 0.143 L/h

CNC(C)C1CCC(N)C(OC2C(N)CC(N)C(OC3OCC(C)(O)C(NC)C3O)C2O)O1 (stereo not drawn) [gentamicin]
clearance in frail older patients compared to fit older patients [4]: reduced

COc1cccc(C2(O)CCCCC2CN(C)C)c1 (stereo not drawn) [tramadol]
BSV in CL/F [5]: 78.9%
BSV in V2/F [5]: 148%
BSV in Q (before inclusion of ISAR covariate (base model)): 4.71%
BSV in V1/F (final model): 73.8%
BSV in kt (final model): 78.5%
Q, inter-compartmental clearance (final model): 0.0426 L/h
V2/F, apparent volume of distribution in peripheral compartment (final model): 0.379 L
between-subject variability (BSV) in absorption rate constant (final model): 37.8%
BSV in CL/F [6]: 6.61%
BSV in V2/F [6]: 97.4%
BSV in Q (final model (with ISAR covariate)): 2.19%
